In patent US5618807A, “Method for preparing 17-substituted steroids useful in cancer treatment” (priority 1992, dated 1997):
Where two headings read alike, the source gives them in different places.

Assays:
[1] = system: Male HWT mice; type: in vivo; details: for Kidneys mean weight ± standard error: 2 weeks
Method: (§1) Male HWT mice, 12 weeks old, were treated daily for 2 weeks, with 5 animals per treatment group. The test compounds were the compound of Examples 1 and 4 (as representative of compounds of the invention having the pregenolone-like and progesterone-like skeletons respectively). Ketoconazole was also tested at three different doses. The test compounds were made up in 5% benzyl alcohol, 95% safflower oil, and were given i.p.. In addition to an untreated control group of animals, there was also a solvent control group which received the same volume of liquid as the test group (5 ml/kg) but no test compound. All animals were sacrificed 24 hours after the last injection. Blood was collected by cardiac puncture into heparinized tubes, and the plasma used for RIA (radio immunoassay) of testosterone and luteinising hormone. The following organs were removed and weighed: adrenals, prostate, seminal vesicles, testes, kidneys. There was no significant body weight loss in any group of mice during the experiments.

[2] = system: testosterone and luteinising hormone; assay: In vivo endocrine test in mice (plasma testosterone and LH by RIA); design: species or system mice (male HWT); details: 2 weeks
Method: Male HWT mice, 12 weeks old, were treated daily for 2 weeks, with 5 animals per treatment group. […] The test compounds were made up in 5% benzyl alcohol, 95% safflower oil, and were given i.p.. In addition to an untreated control group of animals, there was also a solvent control group which received the same volume of liquid as the test group (5 ml/kg) but no test compound. All animals were sacrificed 24 hours after the last injection. Blood was collected by cardiac puncture into heparinized tubes, and the plasma used for RIA (radio immunoassay) of testosterone and luteinising hormone.

[3] = design: species or system mice (male HWT); details: mouse, in vivo, ip
Method: as §1
In Ketoconazole-treated animals, adhesions were found in 2/5,2/5,4/5 of the low/middle/top dose groups. […] The livers were brown in the middle/top dose groups.

[4] = biological target: T1, C17-C20 lyase (Homo sapiens, UniProt P05093); assay: Determination of C17-C20 lyase inhibition (human testicular microsomes, 3H-17α-hydroxyprogesterone substrate); type: biochemical; details: for concentration required to achieve 50% inhibition of lyase, compared with the 3-pyridyl (in words): relative to 3-pyridyl compound
T1 construct: A microsomal preparation was prepared essentially as described by S. E. Barrie et al; from tissue; host or cells: human testis microsomes
T1 sequence (P05093 1-508): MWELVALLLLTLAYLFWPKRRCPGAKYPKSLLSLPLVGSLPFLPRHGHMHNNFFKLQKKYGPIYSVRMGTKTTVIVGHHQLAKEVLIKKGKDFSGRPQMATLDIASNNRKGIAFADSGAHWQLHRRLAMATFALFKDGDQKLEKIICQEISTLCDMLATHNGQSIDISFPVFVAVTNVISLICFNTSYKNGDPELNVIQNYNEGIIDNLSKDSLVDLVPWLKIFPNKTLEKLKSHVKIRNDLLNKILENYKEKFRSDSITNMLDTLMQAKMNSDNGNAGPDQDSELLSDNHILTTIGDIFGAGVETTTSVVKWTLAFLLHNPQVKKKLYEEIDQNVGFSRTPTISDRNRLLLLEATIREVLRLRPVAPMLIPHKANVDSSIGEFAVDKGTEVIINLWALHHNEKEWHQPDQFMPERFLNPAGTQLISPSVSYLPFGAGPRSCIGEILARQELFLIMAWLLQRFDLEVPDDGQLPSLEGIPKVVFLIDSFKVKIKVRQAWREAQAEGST
Method: (§2) Human testes were obtained from previously untreated patients undergoing orchidectomy for prostatic cancer. The testes were decapsulated and stored in liquid nitrogen until use. […] The material was then thawed, finely chopped, and homogenised in 0.25M sucrose (5 ml/g wet weight) using a Potter homogeniser. The homogenate was centrifuged at 12000 g for 30 min, and then the microsomes were pelleted by spinning the supernatant at 100,000 g for 1 hr. The pellet was washed by being resuspended in 0.25M sucrose and repelleted. The microsomal pellet was then resuspended in 50 mM sodium phosphate pH 7.4/ glycerol (3/1 v/v) and stored in aliquots in liquid nitrogen.
(§3) The basic assay mixture was EDTA (0.2 mM), dithiothreitol (DTT; 0.1 mM), NADPH (0.25 mM), glucose 6-phosphate dehydrogenase (G6PDH; 6.25 μg/ml), MgCl2 (1 mM), glucose 6-phosphate (G6P; 10 mM) and the substrate, ^3 H-progesterone (3 μM) in sodium phosphate (50 mm), pH 7.4. The compounds under test were dissolved in 50% DMSO and the final concentrations of ethanol and DMSO were 1% each. The assay reaction was carried out for 1 hour and was terminated by the addition of 2 vols. of methanol-acetonitrile (2:1) containing approx. 100 μM unlabelled progesterone, 17α-hydroxyprogesterone, androstenedione, testosterone, and 16α-hydroxyprogesterone.
The mixture was the same as described above for the 17αt-hydroxylase except that the substrate was ^3 H-17α-hydroxy- progesterone.
The HPLC separation used for the lyase involved a mini-re-column "Uptight Guard Column" packed with PELL-ODS (pellicular octadecyl silica) and a 10 cm. main column "Apex C18" column packed with 5 μ, APEX-CAT silica.
The eluant was 38:12:50 methanol:acetonitrile:water flowing at 1 ml/min. The effluent was mixed 1:1 with Ecoscint A containing 5% methanol and 5% acetonitrile and the radioactivity was measured directly by a Berthold LB506C radiochemical detector. The lyase activity was measured as the production of androstenedione and testosterone.
The enzyme activity was measured in the presence of at least 4 concentrations of each compound. […] Data for all the other compounds were fitted by non-linear regression to the median effect equation of Chou, J. Theoret.

[5] = biological target: T2, 17α-Hydroxylase (Homo sapiens, UniProt P05093); assay: Determination of 17α-hydroxylase inhibition (human testicular microsomes, 3H-progesterone substrate); type: biochemical; details: relative to 3-pyridyl compound
T2 construct: A microsomal preparation was prepared essentially as described by S. E. Barrie et al; from tissue; host or cells: human testis microsomes
T2 sequence (P05093 1-508): T1 sequence (P05093 1-508)
Method: as §2, §3
The separation of the steroids by HPLC was carried out using an "Uptight" guard column packed with 40-63 μm Nucleosil C18 and a 10 cm main column packed with 5 μm Nucleosil C18 and 60% methanol as eluant. The radioactivity in the peaks of interest was monitored on-line by mixing the HPLC effluent 1:1 with Ecoscint A (National Diagnostics) scintillation fluid, containing 25% acetonitrile, and passing the mixture through a Berthold LB506C radiochemical monitor. The hydroxylase activity was measured as the production of 17α-hydroxyprogesterone, androstenedione and testosterone.
The enzyme activity was measured in the presence of at least 4 concentrations of each compound. […]

[6] = biological target: T3, aromatase (Homo sapiens, UniProt P11511); type: biochemical; details: human placental microsomes used; read-out: Michaelis constant Km
T3 construct: using human placental microsomes; from tissue; host or cells: human placental microsomes
T3 sequence (P11511 1-503): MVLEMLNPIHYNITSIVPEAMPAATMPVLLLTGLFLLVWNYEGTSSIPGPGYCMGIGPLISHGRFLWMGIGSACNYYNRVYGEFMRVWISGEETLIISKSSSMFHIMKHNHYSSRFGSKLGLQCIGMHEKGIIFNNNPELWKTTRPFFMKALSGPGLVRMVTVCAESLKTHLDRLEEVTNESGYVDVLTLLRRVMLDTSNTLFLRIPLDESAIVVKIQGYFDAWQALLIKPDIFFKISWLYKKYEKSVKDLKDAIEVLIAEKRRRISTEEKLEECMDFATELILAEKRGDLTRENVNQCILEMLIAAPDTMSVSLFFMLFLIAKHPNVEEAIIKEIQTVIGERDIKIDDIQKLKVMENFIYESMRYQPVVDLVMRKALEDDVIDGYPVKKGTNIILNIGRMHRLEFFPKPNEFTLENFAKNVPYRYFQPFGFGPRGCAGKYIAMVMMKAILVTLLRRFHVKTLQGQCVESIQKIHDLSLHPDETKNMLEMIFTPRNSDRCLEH
Method: Aromatase activity was determined by the method of A. B. Foster et all., J. Med. Chem. 26, 50-54 (1983), using human placental microsomes.

## CC(=O)O[C@H]1CC[C@@]2(C)C(=CC[C@@H]3[C@@H]2CC[C@]2(C)C(c4cccnc4)=CC[C@@H]32)C1 [Example 1, 3β-acetoxy-17-(3-pyridyl)androsta-5,16-diene]
[1]; 0.02 mmol/kg/day i.p.
  Kidneys mean weight ± standard error: 604 ± 24 mg
[1]; 0.1 mmol/kg/day i.p.
  Kidneys mean weight ± standard error: 500 ± 8 mg
[1]; 0.5 mmol/kg/day i.p.
  Kidneys mean weight ± standard error: 449 ± 12 mg
[2]; 0.02 mmol/kg/day i.p.
  Testosterone (mean ± standard error): 2.7 ± 0.5 nM
[2]; 0.1 mmol/kg/day i.p.
  Testosterone (mean ± standard error): 0.2 ± 0.1 nM
[2]; 0.5 mmol/kg/day i.p.
  Testosterone (mean ± standard error): 0.1 ± 0.0 nM
[3]
  post mortem examination: appearance of organs: all organs looked normal
  post mortem examination: deposits: oil/white deposits i.p.

## C[C@]12CC[C@H](O)CC1=CC[C@@H]1[C@@H]2CC[C@]2(C)C(c3ccccn3)=CC[C@@H]12 [Example 2-Pyridyl]
[4]
  concentration required to achieve 50% inhibition of lyase, compared with the 3-pyridyl (in words): far greater
[5]
  concentration required to achieve 50% inhibition of hydroxylase, compared with the 3-pyridyl (in words): far greater

## C[C@]12CC[C@H](O)CC1=CC[C@@H]1[C@@H]2CC[C@]2(C)C(Cc3ccccn3)=CC[C@@H]12 [Example 2-picolyl]
[4]
  concentration required to achieve 50% inhibition of lyase, compared with the 3-pyridyl (in words): far greater
[5]
  concentration required to achieve 50% inhibition of hydroxylase, compared with the 3-pyridyl (in words): far greater

## C[C@]12CCC(=O)C=C1CC[C@@H]1[C@@H]2CC[C@]2(C)C(c3cccnc3)=CC[C@@H]12 [Example 4, 17-(3-Pyridyl)androsta-4,16-dien-3-one]
[3]
  post mortem examination: appearance of organs: all organs looked normal
  post mortem examination: deposits: white deposits throughout the abdomen

## C[C@]12CC[C@H](O)CC1=CC[C@@H]1[C@@H]2CC[C@]2(C)C(c3ccncc3)=CC[C@@H]12 [Example 4-pyridyl]
[4]
  concentration required to achieve 50% inhibition of lyase, compared with the 3-pyridyl (in words): far greater
[5]
  concentration required to achieve 50% inhibition of hydroxylase, compared with the 3-pyridyl (in words): far greater

## C[C@]12CCC(=O)C=C1[C@@H](F)C[C@@H]1[C@@H]2CC[C@]2(C)C(c3cccnc3)=CC[C@@H]12 [Example 12, 6α-Fluoro-17-(3-pyridyl)androsta-4,16-dien-3-one]
[4]; Table 2, approx. 4 nM enzyme, listed as Ex. 12
  IC50: 2.2 nM

## CC(=O)N1CCN(c2ccc(OCC3COC(Cn4ccnc4)(c4ccc(Cl)cc4Cl)O3)cc2)CC1 (centres unmarked) [Ketoconazole]
[1]; mouse, in vivo
  effect on adrenal weight (in words): increase in adrenal weight
[3]
  post mortem examination: gut and peritoneal wall: seemed to be stuck to the seminal vesicles

## [3H][C@@H]1CC(=O)C=C2CC[C@@H]3[C@H](CC[C@]4(C)C(=O)CC[C@@H]34)[C@]21C [[1β-^3 H]androstenedione]
[6]
  Km: 0.039 µM
